Source: patent US11911394B2, “Compound and method for the prevention of transmission of influenza virus” (Hoffmann-La Roche Inc., priority 2019, dated 2024)

Assays:
Type in all cases: in vivo
[1] = system: influenza A virus A/England/195/2009; assay: Example 1 ferret transmission study (direct contact and respiratory droplet), plaque assay of nasal wash; conditions: for Donor ferrets positive for influenza as detected by the plaque assay: donor ferrets treated 24 h post infection; for Donor ferrets positive for influenza as detected by the plaque assay / Sentinel DC ferrets positive for influenza as detected by the plaque assay / Sentinel RD ferrets positive for influenza as detected by the plaque assay: positive/total; for respiratory droplet transmission: from treated donor ferrets to sentinels; for mean time to virus shedding, direct contact sentinels: sentinels exposed to treated donors, control 4.25 days; for Sentinel DC ferrets positive for influenza as detected by the plaque assay: untreated direct contact sentinels of treated donors; for mean time to virus shedding, respiratory droplet exposed sentinels: untreated donors 4.5 days, baloxavir value from the one infected sentinel; for Sentinel RD ferrets positive for influenza as detected by the plaque assay: untreated respiratory droplet sentinels of treated donors
[2] = system: influenza A virus A/England/195/2009; assay: Example 1 ferret transmission study, real-time RT-PCR of nasal wash; conditions: positive/total; for Sentinel DC ferrets positive for influenza as detected by the qRT-PCR: direct contact sentinels; for Sentinel RD ferrets positive for influenza as detected by the qRT-PCR: respiratory droplet sentinels
Description: In this experiment baloxavir was administered once to ferrets as s.c. suspension with 1 mg/kg at 4 different locations in the back. Oseltamivir phosphate (5 mg/kg) was orally administered twice daily for 5 days.
24 hours post infection, the 4 infected ferrets were nasal washed. Nasal washes were assayed immediately by plaquing on fresh MDCK cells for infectious virus and carrying out RT-PCR for viral RNA load. Each donor ferret was then treated with either baloxavir, oseltamivir phosphate or vehicle only. Baloxavir was administered once subcutaneously in 4 locations on the back with 1 mg/l mL/kg per injection (total 4 mg/4 mL/kg). After dosing of baloxavir blood samples (minimum 200 μl) were collected from the donor animals at 48 h and 144 h, respectively, for pharmacokinetics (PK) analysis.
A 5 mg/kg dose of oseltamivir phosphate was orally administered twice daily for 5 days, which is considered to be equivalent to the standard human adult dose of 75 mg for treatment (J Antimicrob Chemother 2014; 69: 2458-2469). After drug administration on day 1 one sentinel animal was introduced into same cage as each infected donor (DC animal) and one sentinel animal was introduced into adjacent cage (RD animal). Sentinel animals were not treated with any drug.
All ferrets were nasal washed on day 2 and every subsequent day until experiment end starting with RD animals, then DC animals, and finishing with donors. Plaque assay was performed immediately on nasal wash. Virus RNA was also monitored by RT-PCR. Daily observation of clinical signs including temperature, weight loss and respiratory signs was performed. In addition, virus exhaled in breath from the 4 donor animals was monitored by placing them in a chamber for 10 minutes and sampling air using sentinel MDCK cells.
140 μl of ferret nasal wash was used to extract RNA using the Qiagen Viral RNA mini kit (Cat No./ID: 52904), according to manufacturer's instructions.
Real-time PCR was performed using 7500 Real Time PCR system (ABI) in 20 μl reactions using AgPath-ID™ One-Step RT-PCR Reagents 10 μl RT-PCR buffer (2×) (Thermo Fisher, Cat. No. 4387391), 4 μl of RNA, 0.8 μl forward (5′[…] 3′, SEQ ID NO:1) and reverse primers (5′ […]3′, SEQ ID NO:2) and 0.4 μl probe (5′ FAM-[…]-BHQ1 3′, SEQ ID NO:3). Reverse transcription was carried out at 45° C. for 10 min. PCR amplification conditions consisted of 95° C. for 15 s and 60° C. for 1 min after an initial denaturation step at 95° C. for 10 min. In total 40 cycles were performed. For each sample, the Ct value for the target M gene was determined. M gene is an influenza gene encoding the 2 Matrix proteins M1 and M2. The M gene is detected in PCR and can be used to quantify the influenza virus. Based on the standard curves, absolute copy numbers were calculated to establish if the ferret was positive for influenza A.

[3] = system: Influenza A/Perth/265/2009 H1N1pdm09 virus; assay: Example 2 ferret contact transmission study, quantitative real-time RT-PCR of nasal wash; conditions: for donor viral copy numbers (qRT-PCR) compared to placebo: 3 DPI (p≤0.05), nasal wash; for recipients with influenza virus RNA detected (qRT-PCR) / ferrets with viral RNA detected (qRT-PCR), FIG. 13B recipient results: positive/total; for ferrets with viral RNA detected (qRT-PCR), FIG. 13B recipient results: Example 2 Experiment 3, printed as donors
Description: The active form baloxavir acid (S-033447, hereafter BXA) and pro-drug oseltamivir phosphate (hereafter OST) was kindly provided by Shionogi & Co., Ltd., Japan. The vehicle for BXA delivery was methyl cellulose (Sigma-Aldrich, Australia) in 0.5 w/v % aqueous solution prepared with sterile water (hereafter MC solution). BXA in suspension with MC solution (1 mg/mL) was prepared using an agate mortar and pestle, and was delivered to reversibly anaesthetised animals in a single treatment consisting of 4 subcutaneous injections at 4 locations on the dorsal region (total dose 4 mg/kg per animal). Animals in the placebo group were dosed identically using MC solution (1 mL/kg) alone. OST doses (10 mg/mL) were prepared in sugar solution (1 g/mL) and delivered bis in die (8 hr interval) to non-sedated ferrets by the oral route (total dose 10 mg/kg/day).
Viral RNA was extracted from 200 μL nasal wash samples using the NucleoMag VET isolation kit (Macherey Nagel) on the KingFisher Flex (ThermoFisher Scientific) platform according to manufacturer's instructions. Influenza virus M gene copy number in 4 μL RNA was determined by quantitative real-time RT-PCR performed using the SensiFAST Probe Lo-ROX One-Step qRT-PCR System Kit (Bioline) on the ABI 7500 Real Time PCR System (Applied Biosystems) under the following cycling conditions: 45° C. for 10 min, 1 cycle; 95° C. for 2 min, 1 cycle; 95° C. for 5 sec then 60° C. for 30 sec, 40 cycles. Sample RNA was quantitated using influenza A RNA standards of known copy number, kindly provided by Seqirus, Australia. Universal influenza A real-time primer/probe sets were kindly provided by CDC Influenza Branch (Atlanta, USA) (sequences available upon request). Results were analysed by 7500 Fast System SDS software v1.5.1.
Data analysis was performed using Graphpad Prism (GraphPad Software, v5.01). Nasal wash viral titres of all ferrets on each day post inoculation/exposure were compared by a matched two-way analysis of variance (ANOVA) followed by Tukey's multiple comparisons test. Quantitative real time RT-PCR was performed on influenza control RNA of known copy number to generate a standard curve (linear regression of influenza cycle threshold (Ct) values vs. copy number). Viral copy numbers present in nasal wash RNA samples on the same assay were calculated using the formula of the standard curve. Influenza A copy numbers for each group of ferrets were compared by a matched two-way ANOVA followed by Tukey's multiple comparisons test. p<0.05 was considered statistically significant.
This study consisted of three separate Experiments using different schedules of antiviral treatment and timing of naïve animal co-housing. In each experiment, twenty-four ferrets were randomly assigned to three groups (n=8): BXA, OST and placebo. Within each group, n=4 ferrets were designated as treated donor ferrets, and n=4 as naïve recipients. On 0 DPI (days post inoculation) for each experiment, all donor ferrets (each individually housed) were intranasally inoculated with influenza A/Perth/265/2009 at […] tissue culture infective doses (TCID50) in 40 μL of phosphate-buffered saline (PBS). As described above, donors in the BXA and placebo groups received a single antiviral treatment, whereas OST-group donors were treated daily until endpoint (excluding cull day). At the designated time point, naïve recipient ferrets were co-housed with treated donor ferrets (1:1 per cage) for a contact exposure period of 48 hr.
Experiment 1: Antiviral treatment for all donors commenced at 1 DPI, and naïve recipient ferrets were co-housed immediately following treatment. Body weight and temperature were monitored daily from all animals. Daily nasal wash samples were collected 1 mL of PBS from 1 DPI to 3 DPI for donor animals, and 1 day post exposure (DPE) to 10 DPE for recipient animals. Donors were sacrificed at 3 DPI (2 DPE), and blood was collected from BXA- and placebo-treated ferrets by cardiac puncture. […]

Row | Compound | Donor ferrets positive for influenza as detected by the plaque assay [1] | respiratory droplet transmission [1] | mean time to virus shedding, direct contact sentinels [1] | Sentinel DC ferrets positive for influenza as detected by the plaque assay [1] | mean time to virus shedding, respiratory droplet exposed sentinels [1] | Sentinel RD ferrets positive for influenza as detected by the plaque assay [1] | Sentinel DC ferrets positive for influenza as detected by the qRT-PCR [2] | Donor ferrets positive for influenza as detected by the qRT-PCR [2] | Sentinel RD ferrets positive for influenza as detected by the qRT-PCR [2] | donor viral copy numbers (qRT-PCR) compared to placebo ([3]; Example 2 Experiment 1) | recipients with influenza virus RNA detected (qRT-PCR) ([3]; Example 2 Experiment 1) | donor mean viral copy number (qRT-PCR) ([3]; Example 2 Experiment 2, 3 DPI, no differences at any other days) | recipients with influenza virus RNA detected (qRT-PCR) ([3]; Example 2 Experiment 2) | ferrets with viral RNA detected (qRT-PCR), FIG. 13B recipient results [3]
1 | O=C1c2c(O)c(=O)ccn2N([C@@H]2c3ccccc3SCc3c2ccc(F)c3F)[C@@H]2COCCN12 [baloxavir, baloxavir acid] | 3/4 | 25% | 5.5 days | 4/4 | 8 days | 1/4 | 4/4 | 4/4 | 1/4 | significantly reduced | 2/4 | reduced | 1/4 | 3/4
2 | CCOC(=O)C1=C[C@@H](OC(CC)CC)[C@H](NC(C)=O)[C@@H](N)C1 [oseltamivir, oseltamivir phosphate, reference compound] | 4/4 | 100% | 5.5 days | 4/4 | 9.3 days | 3/4 | 4/4 | 4/4 | 4/4 | significantly reduced | 4/4 | – | 4/4 | 4/4
